Results reported in PubChem BioAssay AID330 (DTP/NCI, 2004).
Where “and” joins values, the source holds several entries; their conditions need not be identical. Equal values may be shown once. Toxic doses and inconclusive results are not listed. Rule for the calls: active = survival T/C of 150% or more; inactive = T/C below 125% in these data.

Tested on: P388 leukemia ip, CD2F1 mice, survival T/C
Assay: NCI In Vivo Anticancer Drug Screen. Data for tumor model P388 Leukemia (intraperitoneal) in CD2F1 (CDF1) mice
Conditions: endpoint: median survival time, higher = longer survival
How it was run: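 Mice carrying the transplanted tumor received test compound or vehicle. Survival was recorded in each group, and the value is the treated-group measurement divided by that of the vehicle-treated control group.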

[1] = dose: 50.0 mg/kg/injection, schedule: Q01DX009 (ip), vehicle: saline
[2] = dose: 50.0 mg/kg/injection, schedule: Q01DX009 (ip), vehicle: Klucel (hydroxypropylcellulose) (HPC)
[3] = dose: 100.0 mg/kg/injection, schedule: Q01DX009 (ip), vehicle: Klucel (hydroxypropylcellulose) (HPC)
[4] = dose: 200.0 mg/kg/injection, schedule: Q01DX009 (ip), vehicle: Klucel (hydroxypropylcellulose) (HPC)
[5] = dose: 50.0 mg/kg/injection, schedule: Q01DX009 (ip), vehicle: saline with Tween-80
[6] = dose: 100.0 mg/kg/injection, schedule: Q01DX009 (ip), vehicle: saline with Tween-80
[7] = dose: 200.0 mg/kg/injection, schedule: Q01DX009 (ip), vehicle: saline with Tween-80
[8] = dose: 25.0 mg/kg/injection, schedule: Q01DX009 (ip), vehicle: saline with Tween-80
[9] = dose: 60.0 mg/kg/injection, schedule: Q01DX005 (ip), vehicle: saline
[10] = dose: 120.0 mg/kg/injection, schedule: Q01DX005 (ip), vehicle: saline
[11] = dose: 240.0 mg/kg/injection, schedule: Q01DX005 (ip), vehicle: saline

Measured: T/C

C[CH2][Ge]1([CH2]C)[CH2]CC2(CCN(CCCN(C)C)C2)C[CH2]1
inactive: dose: 0.09 mg/kg/injection, schedule: Q01DX009 (ip), vehicle: saline 103 % of control | dose: 0.19 mg/kg/injection, schedule: Q01DX009 (ip), vehicle: saline 103 % of control and 98 % of control | dose: 0.39 mg/kg/injection, schedule: Q01DX009 (ip), vehicle: saline 101 % of control and 103 % of control | dose: 0.78 mg/kg/injection, schedule: Q01DX009 (ip), vehicle: saline 100 % of control and 104 % of control | dose: 1.56 mg/kg/injection, schedule: Q01DX009 (ip), vehicle: saline 100 % of control and 92 % of control | dose: 3.12 mg/kg/injection, schedule: Q01DX009 (ip), vehicle: saline 104 % of control and 98 % of control | dose: 6.25 mg/kg/injection, schedule: Q01DX009 (ip), vehicle: saline 104 % of control | dose: 6.28 mg/kg/injection, schedule: Q01DX009 (ip), vehicle: water 101 % of control | dose: 12.5 mg/kg/injection, schedule: Q01DX009 (ip), vehicle: saline 101 % of control and 104 % of control | dose: 12.5 mg/kg/injection, schedule: Q01DX009 (ip), vehicle: water 106 % of control | dose: 25.0 mg/kg/injection, schedule: Q01DX009 (ip), vehicle: saline 100 % of control and 105 % of control | dose: 25.0 mg/kg/injection, schedule: Q01DX009 (ip), vehicle: water 107 % of control | [1] 100 % of control and 98 % of control | dose: 50.0 mg/kg/injection, schedule: Q01DX009 (ip), vehicle: water 123 % of control | dose: 75.0 mg/kg/injection, schedule: Q01DX009 (ip), vehicle: saline 103 % of control and 104 % of control

Cc1ncc(C(O)CCC2OCCO2)n1Cc1ccccc1 (centres undefined)
inactive: [2] 96 % of control | [3] 98 % of control | [4] 98 % of control

Cc1ccn2c(=O)c(Br)c(C)nc2c1
inactive: dose: 100.0 mg/kg/injection, schedule: Q01DX001 (ip), vehicle: saline with Tween-80 92 % of control | dose: 200.0 mg/kg/injection, schedule: Q01DX001 (ip), vehicle: saline with Tween-80 94 % of control | dose: 400.0 mg/kg/injection, schedule: Q01DX001 (ip), vehicle: saline with Tween-80 97 % of control

C/C=C1/CN2CCC34c5ccccc5N(C)C23C2CC1C4(C(=O)OC)C(O)O2 (centres undefined)
inactive: dose: 9.25 mg/kg/injection, schedule: Q01DX005 (ip), vehicle: saline + Tween-80 + alcohol 114 % of control | dose: 18.5 mg/kg/injection, schedule: Q01DX005 (ip), vehicle: saline + Tween-80 + alcohol 93 % of control | dose: 37.0 mg/kg/injection, schedule: Q01DX005 (ip), vehicle: saline + Tween-80 + alcohol 100 % of control | dose: 74.0 mg/kg/injection, schedule: Q01DX005 (ip), vehicle: saline + Tween-80 + alcohol 100 % of control

CCOC(=O)c1cccc(C(=O)OCC)c1
inactive: [5] 99 % of control | [6] 106 % of control | [7] 108 % of control

CC(c1ccccc1)N1C(=O)CSC1=S (centres undefined)
inactive: [8] 100 % of control | [5] 100 % of control | [6] 100 % of control | [7] 100 % of control

COc1ccc(C(=O)C(C)Oc2ccccc2OC)cc1OC (centres undefined)
inactive: dose: 10.0 mg/kg/injection, schedule: Q01DX005 (ip), vehicle: Klucel (hydroxypropylcellulose) (HPC) 99 % of control | dose: 20.0 mg/kg/injection, schedule: Q01DX005 (ip), vehicle: Klucel (hydroxypropylcellulose) (HPC) 100 % of control | dose: 40.0 mg/kg/injection, schedule: Q01DX005 (ip), vehicle: Klucel (hydroxypropylcellulose) (HPC) 101 % of control

O=C(NCCNC(=O)[C@H]1CCCN1)[C@H]1CCCN1
inactive: [9] 98 % of control | [10] 91 % of control | [11] 93 % of control

Cc1ccc(S(=O)(=O)C(Sc2ccccc2)=S=NC(C)(C)C)cc1
inactive: [2] 104 % of control | [3] 98 % of control | [4] 109 % of control

N=C1N=Nc2nc(C(C(=O)c3cccc([N+](=O)[O-])c3Cl)c3nc4n(c3O)C(=N)N=N4)c(O)n21 (centres undefined)
inactive: dose: 60.0 mg/kg/injection, schedule: Q01DX005 (ip), vehicle: saline with Tween-80 106 % of control | dose: 120.0 mg/kg/injection, schedule: Q01DX005 (ip), vehicle: saline with Tween-80 105 % of control | dose: 240.0 mg/kg/injection, schedule: Q01DX005 (ip), vehicle: saline with Tween-80 106 % of control

Cc1cc(C)c2c(c1)sc1n[nH]c(=S)n12
inactive: [2] 98 % of control | [3] 90 % of control | [4] 90 % of control

C[Si](C)(C)CNC(=O)OCc1ccccc1
inactive: [9] 97 % of control | [10] 95 % of control | [11] 95 % of control

CC(C)NCCO
inactive: [1] 100 % of control | dose: 50.0 mg/kg/injection, schedule: Q04DX003 (ip), vehicle: saline 100 % of control | dose: 100.0 mg/kg/injection, schedule: Q04DX003 (ip), vehicle: saline 109 % of control | dose: 200.0 mg/kg/injection, schedule: Q04DX003 (ip), vehicle: saline 109 % of control

Oc1ccc(N=Cc2ccccn2)cc1
inactive: [8] 94 % of control | [5] 105 % of control and 88 % of control | [6] 107 % of control and 88 % of control | [7] 103 % of control

O=C(Nc1cccc(C(F)(F)F)c1)C12CC3CC(CC(C3)C1)C2
inactive: dose: 6.25 mg/kg/injection, schedule: Q01DX009 (ip), vehicle: saline with Tween-80 98 % of control | dose: 12.5 mg/kg/injection, schedule: Q01DX009 (ip), vehicle: saline with Tween-80 100 % of control | [8] 91 % of control | [5] 90 % of control | [6] 88 % of control

CC(C)CCc1cc(O)ccc1O
inactive: [8] 114 % of control | [5] 101 % of control | [6] 98 % of control | [7] 97 % of control

COc1ccc(N(C)C(=O)c2ccccc2S(=O)(=O)c2ccccc2C(=O)N(C)c2ccc(OC)cc2)cc1
inactive: dose: 50.0 mg/kg/injection, schedule: Q01DX005 (ip), vehicle: saline with Tween-80 104 % of control | dose: 100.0 mg/kg/injection, schedule: Q01DX005 (ip), vehicle: saline with Tween-80 98 % of control | dose: 200.0 mg/kg/injection, schedule: Q01DX005 (ip), vehicle: saline with Tween-80 100 % of control

O=c1oc2ccccc2c2c1cnn2-c1ccccc1
inactive: dose: 60.0 mg/kg/injection, schedule: Q01DX005 (ip), vehicle: Klucel (hydroxypropylcellulose) (HPC) 103 % of control | dose: 120.0 mg/kg/injection, schedule: Q01DX005 (ip), vehicle: Klucel (hydroxypropylcellulose) (HPC) 105 % of control | dose: 240.0 mg/kg/injection, schedule: Q01DX005 (ip), vehicle: Klucel (hydroxypropylcellulose) (HPC) 104 % of control

COc1ccc2c(c1OC)C[N+]1(C)CCc3cc4c(cc3C1=C2C)OCO4 (centres undefined)
inactive: dose: 1.56 mg/kg/injection, schedule: Q01DX005 (ip), vehicle: Klucel (hydroxypropylcellulose) (HPC) 99 % of control | dose: 3.12 mg/kg/injection, schedule: Q01DX005 (ip), vehicle: Klucel (hydroxypropylcellulose) (HPC) 99 % of control | dose: 6.25 mg/kg/injection, schedule: Q01DX005 (ip), vehicle: Klucel (hydroxypropylcellulose) (HPC) 103 % of control and 113 % of control

Cc1csc2ccc(Cl)cc12
inactive: dose: 100.0 mg/kg/injection, schedule: Q01DX001 (ip), vehicle: Klucel (hydroxypropylcellulose) (HPC) 95 % of control | dose: 200.0 mg/kg/injection, schedule: Q01DX001 (ip), vehicle: Klucel (hydroxypropylcellulose) (HPC) 107 % of control | dose: 400.0 mg/kg/injection, schedule: Q01DX001 (ip), vehicle: Klucel (hydroxypropylcellulose) (HPC) 107 % of control

COc1ccc2c(c1)CSC(c1ccccc1)=C2
inactive: [5] 100 % of control | [6] 93 % of control | [7] 94 % of control | dose: 400.0 mg/kg/injection, schedule: Q01DX009 (ip), vehicle: saline with Tween-80 92 % of control

CCCCOc1ccc2nc(C)cc(N/N=C/c3ccc(OC)c4ccccc34)c2c1
inactive: dose: 12.5 mg/kg/injection, schedule: Q01DX005 (ip), vehicle: Klucel (hydroxypropylcellulose) (HPC) 94 % of control | dose: 25.0 mg/kg/injection, schedule: Q01DX005 (ip), vehicle: Klucel (hydroxypropylcellulose) (HPC) 94 % of control | dose: 50.0 mg/kg/injection, schedule: Q01DX005 (ip), vehicle: Klucel (hydroxypropylcellulose) (HPC) 89 % of control and 97 % of control

CCN(CC)[Se]c1ccccc1
inactive: dose: 100.0 mg/kg/injection, schedule: Q04DX002 (ip), vehicle: saline with Tween-80 101 % of control | dose: 200.0 mg/kg/injection, schedule: Q04DX002 (ip), vehicle: saline with Tween-80 100 % of control | dose: 400.0 mg/kg/injection, schedule: Q04DX002 (ip), vehicle: saline with Tween-80 98 % of control
